ChEMBL document CHEMBL4765237, “Structural optimization and structure-activity relationship studies of N-phenyl-7,8-dihydro-6H-pyrimido[5,4-b][1,4]oxazin-4-amine derivatives as a new class of inhibitors of RET and its drug resistance mutants” (Eur J Med Chem, 2018)

Tests used:
[1] = Growth inhibition of […] NIH3T3 cells incubated for 3 days by MTT assay; type: functional; settings: NIH3T3, 72 h; time 3 day
[2] = AUC (0 to t) in Sprague-Dawley rat at 10 mg/kg, po measured upto 24 hrs by LC-MS/MS analysis; type: ADME, organism-based; parameters: route oral, dose 10 mg/kg, time <=24; settings: in vivo
[3] = Toxicity in NOD-SCID mouse xenografted with […] cells harboring RET C634Y mutant assessed as reduction in body weight at 10 to 30 mg/kg, po administered for 18 days and measured on day 18; type: organism-based; settings: in vivo, 432 h, dose 10-30 mg/kg, time 18 day
BHT-101 = test: Growth inhibition of human BHT-101 cells incubated for 3 days by MTT assay; type: functional; settings: BHT-101, 72 h, time 3 day
NCI-H1975 = test: Growth inhibition of human NCI-H1975 cells incubated for 3 days by MTT assay; type: functional; settings: NCI-H1975, 72 h, time 3 day
SGC-7901 = test: Growth inhibition of human SGC-7901 cells incubated for 3 days by MTT assay; type: functional; settings: SGC-7901, 72 h, time 3 day
HGC-27 = test: Growth inhibition of human HGC-27 cells incubated for 3 days by MTT assay; type: functional; settings: HGC-27, 72 h, time 3 day
SK-MEL-1 = test: Growth inhibition of human SK-MEL-1 cells incubated for 3 days by MTT assay; type: functional; settings: SK-MEL-1, 72 h, time 3 day
[4] = Growth inhibition of […] NIH3T3 cells harboring RET C634Y mutant incubated for 3 days by MTT assay; type: functional; settings: NIH3T3, 72 h; time 3 day
BaF3 [5] = test: Growth inhibition of mouse BaF3 cells harboring RET V804M mutant incubated for 3 days by MTT assay; type: functional; settings: BaF3, 72 h, time 3 day
BaF3 [6] = test: Growth inhibition of mouse BaF3 cells over expressing wild type RET incubated for 3 days by MTT assay; type: functional; settings: BaF3, 72 h, time 3 day
[7] = Growth inhibition of human TT cells incubated for 10 days by MTT assay; type: functional; settings: 240 h, time 10 day
HeLa = test: Growth inhibition of human HeLa cells incubated for 3 days by MTT assay; type: functional; settings: 72 h, time 3 day
DU-145 = test: Growth inhibition of human DU-145 cells incubated for 3 days by MTT assay; type: functional; settings: DU-145, 72 h, time 3 day
Aurora kinase B = Aurora kinase B (Homo sapiens, UniProt Q96GD4); test: Inhibition of recombinant full length human Aurora B using AKRRRLSSLRA as substrate incubated for 40 mins in presence of [gamma-33ATP] by scintillation counting based radiometry assay
[8] = target: Serine/threonine-protein kinase B-raf (Homo sapiens, UniProt P15056); test: Inhibition of recombinant full length human B-Raf (416 to end residues) using myelin basic protein substrate incubated for 40 mins in presence of [gamma-33ATP] by scintillation counting based radiometry assay
[9] = target: Casein kinase I isoform delta (Homo sapiens, UniProt P48730); test: Inhibition of recombinant human CK1delta (1 to 294 residues) using KRRRALS(p)VASLPGL as substrate incubated for 40 mins in presence of [gamma-33ATP] by scintillation counting based radiometry assay
Ephrin type-A receptor 2 = Ephrin type-A receptor 2 (Homo sapiens, UniProt P29317); test: Inhibition of recombinant human EphA2 (596 to 900 residues) using poly(Glu, Tyr) 4:1 as substrate incubated for 40 mins in presence of [gamma-33ATP] by scintillation counting based radiometry assay
[10] = target: Vascular endothelial growth factor receptor 1 (Homo sapiens, UniProt P17948)
[11] = target: Tyrosine-protein kinase Mer (Homo sapiens, UniProt Q12866); test: Inhibition of recombinant human MER (557 to 882 residues) using KKLNRTLSFAEPG as substrate incubated for 40 mins in presence of [gamma-33ATP by scintillation counting based radiometry assay
[12] = target: Mitogen-activated protein kinase kinase kinase kinase 5 (Homo sapiens, UniProt Q9Y4K4); test: Inhibition of recombinant human MAP4K5 using myelin basic protein as substrate incubated for 40 mins in presence of [gamma-33ATP by scintillation counting based radiometry assay
Mitogen-activated protein kinase kinase kinase kinase 5, sequence (Q9Y4K4 whole entry): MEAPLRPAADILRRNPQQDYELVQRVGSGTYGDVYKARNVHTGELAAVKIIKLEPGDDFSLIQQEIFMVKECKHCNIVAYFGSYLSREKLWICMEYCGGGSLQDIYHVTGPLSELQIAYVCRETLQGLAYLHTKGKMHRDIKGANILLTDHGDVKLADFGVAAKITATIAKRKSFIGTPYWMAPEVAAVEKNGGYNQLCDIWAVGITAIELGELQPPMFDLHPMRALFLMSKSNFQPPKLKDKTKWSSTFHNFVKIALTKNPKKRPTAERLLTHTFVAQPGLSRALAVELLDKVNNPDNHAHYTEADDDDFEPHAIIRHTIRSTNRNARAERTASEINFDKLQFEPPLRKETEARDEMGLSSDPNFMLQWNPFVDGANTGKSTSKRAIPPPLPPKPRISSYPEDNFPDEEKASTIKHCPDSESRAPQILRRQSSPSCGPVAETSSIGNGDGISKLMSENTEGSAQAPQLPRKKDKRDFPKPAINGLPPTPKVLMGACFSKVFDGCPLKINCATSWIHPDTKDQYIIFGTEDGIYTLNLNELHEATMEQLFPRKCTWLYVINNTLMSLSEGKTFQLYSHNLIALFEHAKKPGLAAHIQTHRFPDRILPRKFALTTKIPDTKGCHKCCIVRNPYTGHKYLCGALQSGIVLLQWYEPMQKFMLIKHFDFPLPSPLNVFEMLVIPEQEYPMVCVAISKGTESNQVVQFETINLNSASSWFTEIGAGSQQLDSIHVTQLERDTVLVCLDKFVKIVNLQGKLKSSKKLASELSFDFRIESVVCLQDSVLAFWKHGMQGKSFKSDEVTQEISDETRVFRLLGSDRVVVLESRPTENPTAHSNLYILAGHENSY

[13] = target: Platelet-derived growth factor receptor alpha (Homo sapiens, UniProt P16234); test: Inhibition of human PDGFRalpha (550 to end residues) using poly(Glu, Tyr) 4:1 as substrate measured after 40 mins in presence of [gamma33P]ATP by scintillation counting based radiometry assay
[14] = target: Serine/threonine-protein kinase TAO2 (Homo sapiens, UniProt Q9UL54); test: Inhibition of recombinant human TAO2 (1 to 320 residues) using myelin basic protein as substrate incubated for 40 mins in presence of [gamma33P]ATP by scintillation counting based radiometry assay
[15] = target: Tyrosine-protein kinase Blk (Homo sapiens, UniProt P51451); test: Inhibition of recombinant full length human BLK using poly(Glu, Tyr) 4:1 as substrate incubated for 40 mins in presence of [gamma-33ATP] by scintillation counting based radiometry assay
Tyrosine-protein kinase Blk, sequence (P51451 whole entry): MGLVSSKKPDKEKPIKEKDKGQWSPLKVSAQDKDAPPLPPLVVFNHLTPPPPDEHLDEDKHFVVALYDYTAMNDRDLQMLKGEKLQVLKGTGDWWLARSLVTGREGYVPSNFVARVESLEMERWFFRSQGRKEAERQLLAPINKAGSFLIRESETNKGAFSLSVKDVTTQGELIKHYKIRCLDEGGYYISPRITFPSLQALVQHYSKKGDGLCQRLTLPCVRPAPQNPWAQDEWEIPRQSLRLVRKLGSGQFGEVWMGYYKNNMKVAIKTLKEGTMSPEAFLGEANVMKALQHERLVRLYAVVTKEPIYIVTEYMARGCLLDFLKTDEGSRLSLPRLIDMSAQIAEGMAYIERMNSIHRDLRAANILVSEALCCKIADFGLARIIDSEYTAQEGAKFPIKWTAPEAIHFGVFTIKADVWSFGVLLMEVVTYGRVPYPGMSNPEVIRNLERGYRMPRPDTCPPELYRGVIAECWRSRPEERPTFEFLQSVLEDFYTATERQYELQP

Ephrin type-B receptor 2 = Ephrin type-B receptor 2 (Homo sapiens, UniProt P29323); test: Inhibition of recombinant human EphB2 (560 to end residues) using poly(Glu, Tyr) 4:1 as substrate incubated for 40 mins in presence of [gamma-33ATP] by scintillation counting based radiometry assay
Ephrin type-B receptor 2, sequence (P29323 whole entry): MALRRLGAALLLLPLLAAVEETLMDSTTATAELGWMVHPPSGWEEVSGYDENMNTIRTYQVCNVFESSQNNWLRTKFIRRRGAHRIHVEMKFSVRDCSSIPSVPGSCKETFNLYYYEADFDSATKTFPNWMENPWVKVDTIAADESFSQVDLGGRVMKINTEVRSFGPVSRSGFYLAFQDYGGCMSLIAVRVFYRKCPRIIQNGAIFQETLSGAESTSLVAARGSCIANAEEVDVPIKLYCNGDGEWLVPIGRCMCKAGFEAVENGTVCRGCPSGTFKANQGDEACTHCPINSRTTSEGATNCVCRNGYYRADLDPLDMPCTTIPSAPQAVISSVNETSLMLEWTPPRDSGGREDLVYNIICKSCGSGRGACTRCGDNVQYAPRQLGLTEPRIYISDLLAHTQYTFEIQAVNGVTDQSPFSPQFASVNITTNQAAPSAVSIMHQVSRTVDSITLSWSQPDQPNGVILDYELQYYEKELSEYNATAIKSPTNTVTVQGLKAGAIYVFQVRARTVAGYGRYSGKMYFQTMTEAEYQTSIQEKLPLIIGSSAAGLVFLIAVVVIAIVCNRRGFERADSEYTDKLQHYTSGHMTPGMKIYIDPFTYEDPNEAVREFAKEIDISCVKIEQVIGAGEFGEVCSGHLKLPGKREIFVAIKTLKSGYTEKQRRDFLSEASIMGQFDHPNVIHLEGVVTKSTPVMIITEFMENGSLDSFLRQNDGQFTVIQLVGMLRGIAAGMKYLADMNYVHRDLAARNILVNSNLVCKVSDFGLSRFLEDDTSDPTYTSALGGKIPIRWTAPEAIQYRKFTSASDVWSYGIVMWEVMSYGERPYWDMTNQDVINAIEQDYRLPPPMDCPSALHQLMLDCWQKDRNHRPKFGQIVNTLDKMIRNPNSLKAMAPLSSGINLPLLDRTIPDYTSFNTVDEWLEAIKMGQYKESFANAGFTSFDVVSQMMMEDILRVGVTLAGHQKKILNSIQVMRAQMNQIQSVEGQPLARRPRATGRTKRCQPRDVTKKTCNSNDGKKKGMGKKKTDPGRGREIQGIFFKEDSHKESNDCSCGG

[16] = target: Fibroblast growth factor receptor 1 (Homo sapiens, UniProt P11362)
[17] = target: Receptor-type tyrosine-protein kinase FLT3 (Homo sapiens, UniProt P36888); test: Inhibition of recombinant human FLT3 (564 to end residues) using EAIYAAPFAKKK as substrate incubated for 40 mins in presence of [gamma-33ATP] by scintillation counting based radiometry assay
[18] = target: Macrophage colony-stimulating factor 1 receptor (Homo sapiens, UniProt P07333)
Macrophage colony-stimulating factor 1 receptor, sequence (P07333 whole entry): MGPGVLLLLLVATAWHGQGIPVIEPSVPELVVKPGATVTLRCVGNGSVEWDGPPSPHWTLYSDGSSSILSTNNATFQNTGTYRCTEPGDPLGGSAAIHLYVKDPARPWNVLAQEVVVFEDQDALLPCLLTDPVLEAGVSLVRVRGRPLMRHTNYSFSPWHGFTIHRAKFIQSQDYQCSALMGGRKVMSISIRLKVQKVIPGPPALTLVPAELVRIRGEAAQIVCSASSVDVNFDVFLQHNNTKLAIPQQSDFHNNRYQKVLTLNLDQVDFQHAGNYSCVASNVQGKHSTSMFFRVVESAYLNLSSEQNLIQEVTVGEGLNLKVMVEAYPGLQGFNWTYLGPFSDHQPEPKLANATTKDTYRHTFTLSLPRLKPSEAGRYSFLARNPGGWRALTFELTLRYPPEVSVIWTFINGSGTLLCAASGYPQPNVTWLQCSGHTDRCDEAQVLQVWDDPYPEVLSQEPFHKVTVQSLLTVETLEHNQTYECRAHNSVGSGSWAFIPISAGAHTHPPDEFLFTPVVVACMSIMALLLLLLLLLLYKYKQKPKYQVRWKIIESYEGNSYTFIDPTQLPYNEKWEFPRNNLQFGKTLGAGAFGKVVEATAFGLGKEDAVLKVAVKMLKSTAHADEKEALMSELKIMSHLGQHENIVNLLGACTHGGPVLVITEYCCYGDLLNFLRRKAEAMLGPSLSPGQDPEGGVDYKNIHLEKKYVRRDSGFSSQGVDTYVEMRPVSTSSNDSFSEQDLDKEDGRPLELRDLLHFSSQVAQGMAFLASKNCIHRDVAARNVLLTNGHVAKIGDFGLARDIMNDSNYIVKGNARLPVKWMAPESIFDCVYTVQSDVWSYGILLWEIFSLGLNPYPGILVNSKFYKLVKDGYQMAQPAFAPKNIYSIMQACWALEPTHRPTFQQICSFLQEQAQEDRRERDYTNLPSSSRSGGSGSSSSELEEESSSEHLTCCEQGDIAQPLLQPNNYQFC

[19] = target: Homeodomain-interacting protein kinase 4 (Homo sapiens, UniProt Q8NE63); test: Inhibition of human HIPK4 using RRRFRPASPLRGPPK as substrate after 40 mins by [gamma-33ATP] radiometric assay
Homeodomain-interacting protein kinase 4, sequence (Q8NE63 whole entry): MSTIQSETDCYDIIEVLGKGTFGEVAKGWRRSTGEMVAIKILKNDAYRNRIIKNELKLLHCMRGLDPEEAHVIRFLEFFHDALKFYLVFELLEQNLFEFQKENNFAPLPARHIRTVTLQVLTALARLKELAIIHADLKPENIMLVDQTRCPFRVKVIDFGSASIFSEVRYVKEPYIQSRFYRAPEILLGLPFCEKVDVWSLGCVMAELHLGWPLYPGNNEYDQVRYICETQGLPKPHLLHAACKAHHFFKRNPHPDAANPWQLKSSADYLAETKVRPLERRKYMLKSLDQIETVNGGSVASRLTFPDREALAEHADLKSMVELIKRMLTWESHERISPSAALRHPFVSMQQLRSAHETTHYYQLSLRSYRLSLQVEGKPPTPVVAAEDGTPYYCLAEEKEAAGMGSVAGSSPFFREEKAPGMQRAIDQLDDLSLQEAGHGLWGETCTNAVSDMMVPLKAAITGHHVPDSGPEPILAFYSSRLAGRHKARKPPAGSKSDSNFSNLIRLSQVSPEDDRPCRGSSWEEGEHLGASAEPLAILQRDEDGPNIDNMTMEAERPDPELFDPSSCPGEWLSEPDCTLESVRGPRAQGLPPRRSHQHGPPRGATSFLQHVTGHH

[20] = target: Tyrosine-protein kinase Lyn (Homo sapiens, UniProt P07948); test: Inhibition of recombinant human Lyn using poly(Glu, Tyr) 4:1 as substrate after 40 mins in presence of [gamma-33ATP] by scintillation counting based radiometry assay
Tyrosine-protein kinase Lyn, sequence (P07948 whole entry): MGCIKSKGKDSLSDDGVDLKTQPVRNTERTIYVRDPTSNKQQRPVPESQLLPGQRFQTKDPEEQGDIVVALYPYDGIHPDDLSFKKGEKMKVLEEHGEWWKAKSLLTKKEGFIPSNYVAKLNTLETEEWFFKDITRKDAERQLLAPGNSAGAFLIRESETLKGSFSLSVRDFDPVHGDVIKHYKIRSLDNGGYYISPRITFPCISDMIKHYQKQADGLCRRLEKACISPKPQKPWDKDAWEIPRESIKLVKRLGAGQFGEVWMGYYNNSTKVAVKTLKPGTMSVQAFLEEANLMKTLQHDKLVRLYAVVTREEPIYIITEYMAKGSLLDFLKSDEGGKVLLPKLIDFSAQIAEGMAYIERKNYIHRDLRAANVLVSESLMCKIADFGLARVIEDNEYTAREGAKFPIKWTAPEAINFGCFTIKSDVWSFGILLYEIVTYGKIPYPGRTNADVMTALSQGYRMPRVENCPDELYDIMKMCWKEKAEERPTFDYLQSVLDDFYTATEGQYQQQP

[21] = target: Mitogen-activated protein kinase 12 (Homo sapiens, UniProt P53778); test: Inhibition of recombinant human full length SAPK3 using myelin basic protein as substrate incubated for 40 mins in presence of [gamma33P]ATP by scintillation counting based radiometry assay
Mitogen-activated protein kinase 12, sequence (P53778 whole entry, the tested form may be a part): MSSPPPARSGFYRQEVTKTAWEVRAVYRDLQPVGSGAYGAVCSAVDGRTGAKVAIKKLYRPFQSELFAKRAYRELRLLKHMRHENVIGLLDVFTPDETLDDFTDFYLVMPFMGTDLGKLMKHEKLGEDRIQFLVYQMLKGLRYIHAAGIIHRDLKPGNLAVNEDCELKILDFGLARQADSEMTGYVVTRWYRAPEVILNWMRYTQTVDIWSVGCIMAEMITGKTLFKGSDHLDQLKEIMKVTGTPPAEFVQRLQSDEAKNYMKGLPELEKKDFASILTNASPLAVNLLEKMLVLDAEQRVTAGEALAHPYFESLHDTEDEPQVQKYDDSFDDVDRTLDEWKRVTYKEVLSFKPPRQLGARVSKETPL

[22] = target: TRAF2 and NCK-interacting protein kinase (Homo sapiens, UniProt Q9UKE5); test: Inhibition of human TNIK (1 to 367 residues) using RLGRDKYKTLRQIRQ as substrate incubated for 40 mins in presence of [gamma33P]ATP by scintillation counting based radiometry assay
[23] = target: Proto-oncogene tyrosine-protein kinase receptor Ret (Homo sapiens, UniProt P07949, V804M)
NIH3T3 = settings: Homo sapiens, dose 10-30 mg/kg, time 18.0 day

Compound: CC(C)(C)c1cc(NC(=O)Nc2ccc(Nc3ncnc4c3OCCCN4)cc2)no1
- GI50 [1]: > 10000 nM
- AUC(0-t) at 24 h [2]: 441 µg·h/mL
- Activity [3]: Non-Toxic
- GI50 (BHT-101): > 10000 nM
- GI50 (NCI-H1975): > 10000 nM
- GI50 (SGC-7901): 7280 nM
- GI50 (HGC-27): 5760 nM
- GI50 (SK-MEL-1): > 10000 nM
- GI50 [4]: 80 nM
- GI50 (BaF3 [5]): 930 nM
- GI50 (BaF3 [6]): 100 nM
- GI50 [7]: 65 nM
- GI50 (HeLa): > 10000 nM
- GI50 (DU-145): > 10000 nM
- IC50 (Aurora kinase B): 1630 nM
- IC50 [8]: 957 nM
- IC50 [9]: 509 nM
- IC50 (Ephrin type-A receptor 2): 104 nM
- IC50 [10]: 8 nM
- IC50 [11]: 1490 nM
- IC50 [12]: 711 nM
- IC50 [13]: 262 nM
- IC50 [14]: 903 nM
- IC50 [15]: 1910 nM
- IC50 (Ephrin type-B receptor 2): 1090 nM
- IC50 [16]: 868 nM
- IC50 [17]: 13 nM
- IC50 [18]: 9 nM
- IC50 [19]: 127 nM
- IC50 [20]: 122 nM
- IC50 [21]: 199 nM
- IC50 [22]: 221 nM
- IC50 [23]: 15 nM
- TGI (NIH3T3): Dose-dependent effect
